From ChEMBL document CHEMBL4837226, “Discovery of pyrrole derivatives for the treatment of glioblastoma and chronic myeloid leukemia” (Eur J Med Chem, 2021)
Activity calls are given as the source filed them. The calls are words filed in the database; no cut-off is given here.

Columns and labels:
Tubulin (Homo sapiens) = Tubulin (Homo sapiens) (UniProt P68371+Q9H4B7+P0DPH7+P68366+Q13509+Q71U36+P04350+Q3ZCM7+P07437+P68363+Q9BQE3+Q6PEY2+Q13885+Q9BVA1+Q9BUF5); assay: Inhibition of [3H]Colchicine binding to tubulin (unknown origin) at 5 uM measured after 10 mins by DEAE-Cellulose filter method relative to control; assay type: protein-complex assay
Tubulin = assay: Inhibition of tubulin polymerization (unknown origin) assessed as reduction in tubulin assembly preincubated for 15 mins followed by GTP addition by spectrophotometric method; assay type: protein-complex assay, Homo sapiens
MCF7 = assay: Cytotoxicity against human MCF7 cells assessed as cell growth inhibition measured after 96 hrs; assay type: functional, cell-based; settings: MCF7, 96 h
[1] = Cytotoxicity against human U-343MG cells assessed as cell growth inhibition measured after 72 hrs by MTS colorimetric assay; assay type: functional, cell-based
[2] = Cytotoxicity against human U343MG cells assessed as cell growth inhibition by measuring maximum efficacy measured after 72 hrs by MTS colorimetric assay relative to control; assay type: functional; settings: U-343MG
U-87 MG [3] = assay: Cytotoxicity against human U-87MG cells assessed as cell growth inhibition by measuring maximum efficacy measured after 48 hrs by MTS colorimetric assay relative to control; assay type: functional, U-87MG ATCC
U-87 MG [4] = assay: Antitumor activity against human U-87MG cells xenografted in BALB/c nu/nu mouse assessed as reduction in glioma tumors at 25 mg/kg, ip administered every 2 days for 35 days by hematoxylin and eosin staining based assay; assay type: functional, organism-based; settings: U-87MG ATCC, time 35.0 day
U-87 MG [5] = assay: Antitumor activity against human U-87MG cells xenografted in BALB/c nu/nu mouse assessed as reduction in Ki67 expression at 25 mg/kg, ip administered every 2 days for 35 days by DAPI staining based immunofluorescence analysis; assay type: functional, organism-based; settings: U-87MG ATCC, time 35.0 day
U-87 MG [6] = assay: Antitumor activity against human U-87MG cells xenografted in BALB/c nu/nu mouse assessed as reduction in CD31 marker expression at 25 mg/kg, ip administered every 2 days for 35 days by DAPI staining based immunofluorescence analysis; assay type: functional, organism-based; settings: U-87MG ATCC, time 35.0 day
U-87 MG [7] = assay: Antitumor activity against human U-87MG cells xenografted in BALB/c nu/nu mouse assessed as reduction in Bcl2 protein expression at 25 mg/kg, ip administered every 2 days for 35 days by DAPI staining based immunofluorescence analysis; assay type: functional, organism-based; settings: U-87MG ATCC, time 35.0 day
U-87 MG [8] = assay: Antitumor activity against human U-87MG cells xenografted in BALB/c nu/nu mouse assessed as reduction in GFAP expression at 25 mg/kg, ip administered every 2 days for 35 days by DAPI staining based immunofluorescence analysis; assay type: functional, organism-based; settings: U-87MG ATCC, time 35.0 day
U-87 MG [9] = assay: Antitumor activity against human U-87MG cells xenografted in BALB/c nu/nu mouse assessed as reduction in CD133 marker expression at 25 mg/kg, ip administered every 2 days for 35 days by DAPI staining based immunofluorescence analysis; assay type: functional, organism-based; settings: U-87MG ATCC, time 35.0 day
KU812 cell line = assay: Cytotoxicity against Bcr-Abl expressing human KU812 cells assessed as cell growth inhibition measured after 48 hrs by MTT assay; assay type: functional, cell-based; settings: KU812, 48 h
KBM5 [10] = assay: Cytotoxicity against Imatinib mesylate sensitive wild-type human KBM5 cells assessed as cell growth inhibition measured after 48 hrs by MTT assay; assay type: functional, cell-based; settings: KBM5, 48 h
KBM5 [11] = assay: Cytotoxicity against imatinib mesylate resistant wild-type human KBM5 cells expressing T315I mutant assessed as cell growth inhibition measured after 48 hrs by MTT assay; assay type: functional, cell-based; settings: KBM5, 48 h
KBM5 [12] = assay: Potentiation of ponatinib-induced apoptosis human KBM5 cells expressing T315I mutant assessed as increase in apoptotic cells at 5 nM measured after 48 hrs by annexin V staining based flow cytometry analysis (reference value: 35 %); assay type: functional
KBM5 [13] = assay: Potentiation of ponatinib-induced mitochondrial membrane depolarization in human KBM5 cells expressing T315I mutant at 5 nM measured upto 48 hrs by JC-1 staining based flow cytometry analysis; assay type: functional, cell-based; settings: time hrs <=48
[14] = target: Bcr/Abl fusion protein (Homo sapiens) (UniProt P00519+P11274); assay: Inhibition of Bcr-Abl tyrosine phosphorylation in human KBM5 cells expressing T315I mutant at 1 to 10 nM in the presence of ponatinib measured after 24 hrs by western blot analysis; assay type: cell-based; settings: dose 1-10 nM
Bcr/Abl fusion protein (Homo sapiens), sequence (P00519 whole entry, looked up, the tested form may be a part): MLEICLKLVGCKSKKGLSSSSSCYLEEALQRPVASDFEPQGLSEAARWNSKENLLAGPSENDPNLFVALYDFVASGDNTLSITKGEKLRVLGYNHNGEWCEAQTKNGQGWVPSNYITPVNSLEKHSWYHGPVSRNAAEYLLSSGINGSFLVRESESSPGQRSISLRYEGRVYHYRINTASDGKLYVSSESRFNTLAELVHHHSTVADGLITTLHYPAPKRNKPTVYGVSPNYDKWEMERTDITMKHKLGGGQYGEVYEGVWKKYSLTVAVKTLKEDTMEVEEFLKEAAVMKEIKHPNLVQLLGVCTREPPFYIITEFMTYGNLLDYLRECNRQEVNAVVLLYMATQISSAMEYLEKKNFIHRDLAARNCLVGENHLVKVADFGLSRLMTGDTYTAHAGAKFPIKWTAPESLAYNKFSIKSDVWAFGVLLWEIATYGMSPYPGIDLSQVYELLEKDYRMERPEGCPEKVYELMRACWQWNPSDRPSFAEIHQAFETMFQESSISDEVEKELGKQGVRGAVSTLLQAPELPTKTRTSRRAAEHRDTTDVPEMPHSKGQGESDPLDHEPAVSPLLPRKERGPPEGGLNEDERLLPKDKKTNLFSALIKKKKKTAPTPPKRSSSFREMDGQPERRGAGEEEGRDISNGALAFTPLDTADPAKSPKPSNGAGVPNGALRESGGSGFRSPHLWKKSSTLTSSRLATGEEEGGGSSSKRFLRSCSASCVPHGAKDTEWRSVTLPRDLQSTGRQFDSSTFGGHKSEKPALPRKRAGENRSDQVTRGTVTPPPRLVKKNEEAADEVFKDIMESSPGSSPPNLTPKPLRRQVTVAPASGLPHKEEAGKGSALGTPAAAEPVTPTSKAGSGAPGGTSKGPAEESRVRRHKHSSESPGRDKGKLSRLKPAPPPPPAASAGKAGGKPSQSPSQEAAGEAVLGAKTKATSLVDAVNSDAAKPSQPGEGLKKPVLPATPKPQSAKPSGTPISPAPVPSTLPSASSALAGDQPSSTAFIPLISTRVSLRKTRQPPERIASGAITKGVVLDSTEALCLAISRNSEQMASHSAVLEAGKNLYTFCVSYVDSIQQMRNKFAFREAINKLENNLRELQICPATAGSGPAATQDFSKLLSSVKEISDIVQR
Bcr/Abl fusion protein (Homo sapiens), sequence (P11274 whole entry, looked up, the tested form may be a part): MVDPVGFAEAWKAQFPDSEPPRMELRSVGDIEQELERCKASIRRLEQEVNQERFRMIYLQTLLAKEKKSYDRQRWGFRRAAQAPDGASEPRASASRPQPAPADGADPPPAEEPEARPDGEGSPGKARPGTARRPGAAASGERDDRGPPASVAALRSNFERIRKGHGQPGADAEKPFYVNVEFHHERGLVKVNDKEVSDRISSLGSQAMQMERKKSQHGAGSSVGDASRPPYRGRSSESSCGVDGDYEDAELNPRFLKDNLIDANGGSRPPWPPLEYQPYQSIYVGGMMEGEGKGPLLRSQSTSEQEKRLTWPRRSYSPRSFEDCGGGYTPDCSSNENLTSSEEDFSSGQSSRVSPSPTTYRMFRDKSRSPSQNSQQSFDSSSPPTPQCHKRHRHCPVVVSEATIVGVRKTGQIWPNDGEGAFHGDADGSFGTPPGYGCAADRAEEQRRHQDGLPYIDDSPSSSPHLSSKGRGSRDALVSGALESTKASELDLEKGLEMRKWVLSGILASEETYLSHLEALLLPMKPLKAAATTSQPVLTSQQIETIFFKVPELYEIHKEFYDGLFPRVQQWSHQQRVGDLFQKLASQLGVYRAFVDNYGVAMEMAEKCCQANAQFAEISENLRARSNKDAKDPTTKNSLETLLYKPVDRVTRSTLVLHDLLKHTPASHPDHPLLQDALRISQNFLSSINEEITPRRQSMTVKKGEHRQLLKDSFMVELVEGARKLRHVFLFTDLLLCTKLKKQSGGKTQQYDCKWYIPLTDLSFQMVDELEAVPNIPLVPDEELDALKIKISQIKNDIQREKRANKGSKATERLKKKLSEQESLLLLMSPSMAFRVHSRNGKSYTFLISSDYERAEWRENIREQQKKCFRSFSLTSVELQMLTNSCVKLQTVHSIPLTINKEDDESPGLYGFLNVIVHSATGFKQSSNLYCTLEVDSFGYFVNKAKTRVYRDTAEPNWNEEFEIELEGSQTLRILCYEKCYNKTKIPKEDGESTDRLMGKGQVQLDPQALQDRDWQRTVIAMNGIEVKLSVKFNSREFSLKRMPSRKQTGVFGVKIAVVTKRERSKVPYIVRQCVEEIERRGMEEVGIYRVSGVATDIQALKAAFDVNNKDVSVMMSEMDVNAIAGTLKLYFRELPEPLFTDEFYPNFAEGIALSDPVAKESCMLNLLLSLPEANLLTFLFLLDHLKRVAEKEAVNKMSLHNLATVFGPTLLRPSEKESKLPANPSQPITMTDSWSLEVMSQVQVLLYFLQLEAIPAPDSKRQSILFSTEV

KBM5 [15] = assay: Induction of apoptosis in human KBM5 cells expressing T315I mutant assessed as decrease in […] expression at 1 to 10 uM measured after 24 hrs by Western blot analysis; assay type: functional, cell-based; settings: dose 1-10 µM
KBM5 [16] = assay: Induction of apoptosis in human KBM5 cells expressing T315I mutant assessed as increase in Bcr-Abl expression at 1 to 10 uM measured after 24 hrs by western blot analysis; assay type: functional, cell-based; settings: dose 1-10 µM
SW480 = assay: Cytotoxicity against human SW480 cells assessed as cell growth inhibition measured after 48 hrs by XTT dye based assay; assay type: functional; settings: SW480, 48 h
SW-620 = assay: Cytotoxicity against human SW-620 cells assessed as cell growth inhibition measured after 48 hrs by XTT dye based assay; assay type: functional; settings: SW-620, 48 h
[17] = target: T1, DNA topoisomerase 1 (Homo sapiens) (UniProt P11387); assay: Inhibition of human recombinant topoisomerase I using supercoiled pHOT1 plasmid DNA as substrate at 10 to 100 uM measured after 1 hr by agarose gel electrophoresis analysis; settings: dose 10-100 µM
T1 sequence (whole entry): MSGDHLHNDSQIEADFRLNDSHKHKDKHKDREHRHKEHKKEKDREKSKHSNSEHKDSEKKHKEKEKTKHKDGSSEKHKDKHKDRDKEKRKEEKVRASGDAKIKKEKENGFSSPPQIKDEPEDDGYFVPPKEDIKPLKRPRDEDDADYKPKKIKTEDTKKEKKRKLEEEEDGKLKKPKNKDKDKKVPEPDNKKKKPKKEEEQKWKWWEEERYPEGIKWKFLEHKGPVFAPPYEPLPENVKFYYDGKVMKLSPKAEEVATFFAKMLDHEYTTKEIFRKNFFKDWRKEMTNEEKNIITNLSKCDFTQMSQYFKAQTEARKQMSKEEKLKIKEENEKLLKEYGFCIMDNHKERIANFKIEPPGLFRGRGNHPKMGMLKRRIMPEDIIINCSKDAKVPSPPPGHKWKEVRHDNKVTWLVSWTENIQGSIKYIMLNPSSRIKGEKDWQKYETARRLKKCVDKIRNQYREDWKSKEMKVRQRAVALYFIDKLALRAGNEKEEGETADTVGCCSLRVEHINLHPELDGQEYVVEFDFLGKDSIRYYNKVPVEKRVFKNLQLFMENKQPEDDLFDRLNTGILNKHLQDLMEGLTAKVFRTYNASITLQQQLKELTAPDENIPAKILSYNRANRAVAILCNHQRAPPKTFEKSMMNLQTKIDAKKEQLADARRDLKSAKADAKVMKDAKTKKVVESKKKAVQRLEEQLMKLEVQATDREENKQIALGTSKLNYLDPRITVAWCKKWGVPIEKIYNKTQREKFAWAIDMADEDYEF

[18] = target: DNA topoisomerase II (Homo sapiens) (UniProt P11388+Q02880); assay: Inhibition of human topoisomerase II assessed as reduction in decantenation using kinetoplast DNA as a substrate at 10 to 50 uM measured after 1 hr by ethidium bromide staining based agarose gel electrophoresis analysis; assay type: protein assay; settings: dose 10-50 µM

inhibition (Tubulin (Homo sapiens)): 90%
IC50 (Tubulin): 390 nM
inhibition [14]: Active
inhibition [17]: inactive
inhibition [18]: inactive
Structure (SMILES): COc1cc(C(=O)c2cn(-c3ccc(C)cc3)cc2-c2ccsc2)cc(OC)c1OC
IC50 (MCF7): 4 nM
IC50 [1]: 18.6 nM
Emax [2]: 48.5%
Emax (U-87 MG [3]): 55.6%
Activity (U-87 MG [4]): Active
Activity (U-87 MG [5]): Active
Activity (U-87 MG [6]): Active
Activity (U-87 MG [7]): Active
Activity (U-87 MG [8]): Active
Activity (U-87 MG [9]): Active
IC50 (KU812 cell line): 9.5 nM
IC50 (KBM5 [10]): 8.2 nM
IC50 (KBM5 [11]): 8.8 nM
Activity (KBM5 [12]): 70%
Activity (KBM5 [13]): Active
Activity (KBM5 [15]): Active
Activity (KBM5 [16]): Active
IC50 (SW480): 656 nM
IC50 (SW-620): 111 nM
